Experimental data from patent US7795229B2, “Serum cholesterol lowering agent or preventative or therapeutic agent for atherosclerosis” (Kotobuki Pharmaceutical Co., Ltd., priority 2003, dated 2010).
One block for each compound: values may come before it.

Experiments:
[1] = test system: cholesterol-fed rat; test: Serum cholesterol lowering action in cholesterol-fed rat; assay type: in vivo; details: for Reduction % of serum cholesterol value: cholesterol-fed rat, value to control
Procedure: Male Splague-Dawley rats weighing 300˜500 g (Nihon SLC Co. Ltd.) were fed MF-2 chow (Nihon Crea Co. Ltd.) until study onset. At the study onset, the chow was changed to MF-2 chow containing 1% cholesterol and 0.5% cholic acid. […] Twenty hours after the last administration, blood was collected from the abdominal aorta under ether anaesthesia, and serum was separated. The cholesterol value was measured using Cholesterol E Test Wako (Wako Pure Chemical Co. Ltd.). […] The experimental 5 and 6 indicates the combined dosage examples in the present invention. Each reduction percent is shown as the value to control.
Except of the use of compound 37 instead of compound 56, quietly same experiment to pharmacological experiment 1 was carried out. Each reduction % is shown as the value to control.

[2] = alone, 1 mg/kg/day, once a day for 7 days
[3] = alone, 0.03 mg/kg/day, once a day for 7 days
[4] = alone, 0.3 mg/kg/day, once a day for 7 days
[5] = combined dosage: compound 0.3 mg/kg/day + atorvastatin 1 mg/kg/day
[6] = combined dosage: compound 0.3 mg/kg/day + atorvastatin 1 mg/kg/day, 7 days
[7] = combined dosage: compound 0.3 mg/kg/day + fenofibrate 10 mg/kg/day
[8] = combined dosage: compound 0.3 mg/kg/day + fenofibrate 10 mg/kg/day, 7 days

Compound: CC(C)c1c(C(=O)Nc2ccccc2)c(-c2ccccc2)c(-c2ccc(F)cc2)n1CC[C@@H](O)C[C@@H](O)CC(=O)O [Atorvastatin, atorvastatin, reference compound]
Reduction % of serum cholesterol value [1, 2]: 6.2%

melting point: 80 to 82 °C
Compound: O=C1[C@H](CC[C@H](O)c2ccc(F)cc2)[C@@H](c2ccc([C@@H]3O[C@H](CO)[C@@H](O)[C@H](O)[C@H]3O)cc2)N1c1ccccc1 [Compound 37]
Reduction % of serum cholesterol value [1, 3]: 5.6%
Reduction % of serum cholesterol value [1, 4]: 18.0%
Reduction % of serum cholesterol value [1, 2]: 31.0%
Combination effect on reduction % of serum cholesterol versus sum of agents alone [1, 5]: synergistic effect
Reduction % of serum cholesterol value [1, 6]: 31.5%
Combination effect on reduction % of serum cholesterol versus sum of agents alone [1, 7]: synergistic effect
Reduction % of serum cholesterol value [1, 8]: 39.5%

melting point: 61 to 63 °C
Compound: O=C1[C@H](CC[C@H](O)c2ccc(F)cc2)[C@@H](c2ccc(CCCOC[C@@H]3O[C@H](CO)[C@@H](O)[C@H](O)[C@H]3O)cc2)N1c1ccc(F)cc1 [Compound 50]

melting point: 65 to 67 °C
Compound: O=C1[C@H](CC[C@H](O)c2ccc(F)cc2)[C@@H](c2ccc(/C=C/COC[C@@H]3O[C@H](CO)[C@@H](O)[C@H](O)[C@H]3O)cc2)N1c1ccc(F)cc1 [Compound 51]

melting point: 79 to 81 °C
Compound: O=C1[C@H](CC[C@H](O)c2ccc(F)cc2)[C@@H](c2ccc(/C=C/CC[C@@H]3O[C@H](CO)[C@@H](O)[C@H](O)[C@H]3O)cc2)N1c1ccc(F)cc1 [Compound 52]

melting point: 81 to 83 °C
Compound: O=C1[C@H](CC[C@H](O)c2ccc(F)cc2)[C@@H](c2ccc(CCCC[C@@H]3O[C@H](CO)[C@@H](O)[C@H](O)[C@H]3O)cc2)N1c1ccc(F)cc1 [Compound 53]

melting point: 69 to 71 °C
Compound: O=C1[C@H](CC[C@H](O)c2ccc(F)cc2)[C@@H](c2ccc(/C=C/CCC[C@@H]3O[C@H](CO)[C@@H](O)[C@H](O)[C@H]3O)cc2)N1c1ccc(F)cc1 [Compound 54]

melting point: 66 to 68 °C
Compound: O=C1[C@H](CC[C@H](O)c2ccc(F)cc2)[C@@H](c2ccc(CCCCC[C@@H]3O[C@H](CO)[C@@H](O)[C@H](O)[C@H]3O)cc2)N1c1ccc(F)cc1 [Compound 55]

melting point: 82 to 84 °C
Compound: O=C1[C@H](CC[C@H](O)c2ccc(F)cc2)[C@@H](c2ccc(CC[C@@H]3O[C@H](CO)[C@@H](O)[C@H](O)[C@H]3O)cc2)N1c1ccccc1 [Compound 56]
Reduction % of serum cholesterol value [1, 3]: 1.9%
Reduction % of serum cholesterol value [1, 4]: 6.9%
Reduction % of serum cholesterol value [1, 2]: 33.5%
Combination effect on reduction % of serum cholesterol versus sum of agents alone [1, 5]: synergistic effect
Reduction % of serum cholesterol value [1, 6]: 20.2%
Combination effect on reduction % of serum cholesterol versus sum of agents alone [1, 7]: synergistic effect
Reduction % of serum cholesterol value [1, 8]: 41.3%

melting point: 116 to 118 °C
Compound: Cc1ccc(N2C(=O)[C@H](CC[C@H](O)c3ccc(F)cc3)[C@H]2c2ccc(CC[C@@H]3O[C@H](CO)[C@@H](O)[C@H](O)[C@H]3O)cc2)cc1 [Compound 57]

melting point: 110 to 112 °C
Compound: O=C(O)[C@H]1O[C@@H](CCc2ccc([C@@H]3[C@@H](CC[C@H](O)c4ccc(F)cc4)C(=O)N3c3ccccc3)cc2)[C@H](O)[C@@H](O)[C@@H]1O [Compound 58]
